We go through one compound from publication PMC5218480 (PLoS ONE, 2017).

For this assay, the system named is MV-4-11 cells. Nature of the assay: Gene expression microarray analysis (Affymetrix PrimeView) and GSEA. The assay is classed as cell-based, human. More on the design: RFU PODN (11730768_x_at) / Fold change /veh PODN (11730768_x_at) / RFU LINC00158 (11744669_a_at) / Fold change /veh LINC00158 (11744669_a_at) / RFU DUSP10 (11751237_a_at) / Fold change /veh DUSP10 (11751237_a_at) / RFU ID3 (11757404_x_at) / Fold change /veh ID3 (11757404_x_at) / RFU PLEKHG5 (11737974_s_at) / Fold change /veh PLEKHG5 (11737974_s_at) / RFU LRRC4B (11730491_at) / Fold change /veh LRRC4B (11730491_at) / RFU GIMAP4 (11747438_a_at) / Fold change /veh GIMAP4 (11747438_a_at) / RFU KRT8 (11758183_x_at) / Fold change /veh KRT8 (11758183_x_at) / RFU CNN1 (11734310_a_at) / Fold change /veh CNN1 (11734310_a_at) / RFU VPS37D (11726825_at) / Fold change /veh VPS37D (11726825_at) / RFU C10orf10 (11716522_x_at) / Fold change /veh C10orf10 (11716522_x_at) / RFU KIR2DL2 /// KIR2DL4 /// KIR2DL5A /// KIR2DL5B /// KIR2DS1 /// KIR2DS2 /// KIR2DS3 /// KIR2DS4 /// KIR3DL3 /// KIR3DL3 /// KIR3DS1 (11738374_at) / Fold change /veh KIR2DL2 /// KIR2DL4 /// KIR2DL5A /// KIR2DL5B /// KIR2DS1 /// KIR2DS2 /// KIR2DS3 /// KIR2DS4 /// KIR3DL3 /// KIR3DL3 /// KIR3DS1 (11738374_at) / RFU C1QL1 (11718748_at) / Fold change /veh C1QL1 (11718748_at) / RFU TMPRSS4 (11747572_a_at) / Fold change /veh TMPRSS4 (11747572_a_at) / RFU HAMP (11756126_x_at) / Fold change /veh HAMP (11756126_x_at) / RFU RNFT2 (11725882_a_at) / Fold change /veh RNFT2 (11725882_a_at) / RFU NR4A2 (11747474_a_at) / Fold change /veh NR4A2 (11747474_a_at) / RFU ABCC12 (11746883_a_at) / Fold change /veh ABCC12 (11746883_a_at) / RFU TMEM136 (11760407_x_at) / Fold change /veh TMEM136 (11760407_x_at) / RFU CLDN22 /// WWC2 (11732394_at) / Fold change /veh CLDN22 /// WWC2 (11732394_at) / RFU HLA-DPB1 (11760878_x_at) / Fold change /veh HLA-DPB1 (11760878_x_at) / RFU SPINT1 (11716480_a_at) / Fold change /veh SPINT1 (11716480_a_at) / RFU GAP43 (11754022_s_at) / Fold change /veh GAP43 (11754022_s_at) / RFU A4GNT (11735810_at) / Fold change /veh A4GNT (11735810_at) / RFU PRB3 (11715151_x_at) / Fold change /veh PRB3 (11715151_x_at) / RFU TUBB4B (11761932_at) / Fold change /veh TUBB4B (11761932_at) / RFU CAPN14 (11732068_a_at) / Fold change /veh CAPN14 (11732068_a_at) / RFU TMCC2 (11721928_a_at) / Fold change /veh TMCC2 (11721928_a_at) / RFU IRGQ (11745062_a_at) / Fold change /veh IRGQ (11745062_a_at) / RFU FAM174B (11720279_a_at) / Fold change /veh FAM174B (11720279_a_at) / RFU TMPRSS4 (11748680_a_at) / Fold change /veh TMPRSS4 (11748680_a_at) / RFU FAM212B (11763350_a_at) / Fold change /veh FAM212B (11763350_a_at) / RFU PLEKHG5 (11743358_a_at) / Fold change /veh PLEKHG5 (11743358_a_at) / RFU ZSCAN30 (11745921_a_at) / Fold change /veh ZSCAN30 (11745921_a_at) / RFU CMKLR1 (11741424_a_at) / Fold change /veh CMKLR1 (11741424_a_at) / RFU LOC101060620 /// MAPK8IP1 (11723275_at) / Fold change /veh LOC101060620 /// MAPK8IP1 (11723275_at) / RFU SPTSSB (11747773_x_at) / Fold change /veh SPTSSB (11747773_x_at) / RFU PRSS12 (11739890_at) / Fold change /veh PRSS12 (11739890_at) / RFU BIN1 (11741810_x_at) / Fold change /veh BIN1 (11741810_x_at) / RFU WNT11 (11732464_a_at) / Fold change /veh WNT11 (11732464_a_at) / RFU C10orf10 (11716521_a_at) / Fold change /veh C10orf10 (11716521_a_at) / RFU C5orf56 (11738089_at) / Fold change /veh C5orf56 (11738089_at) / RFU CYB561 (11721691_x_at) / Fold change /veh CYB561 (11721691_x_at) / RFU ANKRD19P (11752326_a_at) / Fold change /veh ANKRD19P (11752326_a_at) / RFU OR2T12 /// OR2T33 /// OR2T8 (11738714_s_at) / Fold change /veh OR2T12 /// OR2T33 /// OR2T8 (11738714_s_at) / RFU VCAN (11748164_a_at) / Fold change /veh VCAN (11748164_a_at) / RFU JSRP1 (11732532_at) / Fold change /veh JSRP1 (11732532_at) / RFU KRTAP10-11 (11738290_x_at) / Fold change /veh KRTAP10-11 (11738290_x_at) / RFU MYO3A (11730013_a_at) / Fold change /veh MYO3A (11730013_a_at) / RFU EBF3 (11725865_a_at) / Fold change /veh EBF3 (11725865_a_at) / RFU CAMK2N1 (11719241_x_at) / Fold change /veh CAMK2N1 (11719241_x_at) / RFU C5orf56 (11738088_a_at) / Fold change /veh C5orf56 (11738088_a_at) / RFU OLFML3 (11715873_a_at) / Fold change /veh OLFML3 (11715873_a_at) / RFU LOC100653217 /// NTM (11731650_a_at) / Fold change /veh LOC100653217 /// NTM (11731650_a_at) / RFU MAPK11 (11762145_a_at) / Fold change /veh MAPK11 (11762145_a_at) / RFU FIZ1 (11724087_x_at) / Fold change /veh FIZ1 (11724087_x_at) / RFU OASL (11726364_x_at) / Fold change /veh OASL (11726364_x_at) / RFU SOX15 (11748057_x_at) / Fold change /veh SOX15 (11748057_x_at) / RFU CD79A (11719716_a_at) / Fold change /veh CD79A (11719716_a_at) / RFU HIST1H1D (11736915_at) / Fold change /veh HIST1H1D (11736915_at) / RFU CASKIN2 (11723855_a_at) / Fold change /veh CASKIN2 (11723855_a_at) / RFU LOC730098 (11760151_x_at) / Fold change /veh LOC730098 (11760151_x_at) / RFU OR4N2 (11742367_at) / Fold change /veh OR4N2 (11742367_at) / RFU PRRT2 (11749266_a_at) / Fold change /veh PRRT2 (11749266_a_at) / RFU SNX32 (11753110_a_at) / Fold change /veh SNX32 (11753110_a_at) / RFU CDHR5 (11726645_a_at) / Fold change /veh CDHR5 (11726645_a_at) / RFU RCAN1 (11760418_a_at) / Fold change /veh RCAN1 (11760418_a_at) / RFU FAM167A (11723789_a_at) / Fold change /veh FAM167A (11723789_a_at) / RFU FAM26E (11764081_at) / Fold change /veh FAM26E (11764081_at) / RFU ISYNA1 (11749810_s_at) / Fold change /veh ISYNA1 (11749810_s_at) / RFU ACY1 (11761880_at) / Fold change /veh ACY1 (11761880_at) / RFU 11764098_at / Fold change /veh 11764098_at / RFU SAMD14 (11745864_x_at) / Fold change /veh SAMD14 (11745864_x_at) / RFU NPB (11741838_a_at) / Fold change /veh NPB (11741838_a_at) / RFU TMPRSS6 (11731388_a_at) / Fold change /veh TMPRSS6 (11731388_a_at) / RFU KRTAP10-2 (11738614_at) / Fold change /veh KRTAP10-2 (11738614_at) / RFU ARHGAP8 /// PRR5-ARHGAP8 (11727945_x_at) / Fold change /veh ARHGAP8 /// PRR5-ARHGAP8 (11727945_x_at) / RFU KRTAP5-7 /// NADSYN1 (11734609_at) / Fold change /veh KRTAP5-7 /// NADSYN1 (11734609_at) / RFU RASL12 (11751679_a_at) / Fold change /veh RASL12 (11751679_a_at) / RFU CDKN2B (11736163_a_at) / Fold change /veh CDKN2B (11736163_a_at) / RFU PRF1 (11729649_at) / Fold change /veh PRF1 (11729649_at) / RFU, ZNF638 /// ZNF638-IT1 / Fold change vs veh, ZNF638 /// ZNF638-IT1 / RFU, PANK3 / Fold change vs veh, PANK3 / RFU, SH3YL1 / Fold change vs veh, SH3YL1 / RFU, ZEB2 / Fold change vs veh, ZEB2 / RFU, NRIP1 / Fold change vs veh, NRIP1 / RFU, PTTG1IP / Fold change vs veh, PTTG1IP / RFU, CAPN2 / Fold change vs veh, CAPN2 / RFU, MED14 / Fold change vs veh, MED14 / RFU, SNORA58 / Fold change vs veh, SNORA58 / RFU, C1orf63 / Fold change vs veh, C1orf63 / RFU, LRRFIP1 / Fold change vs veh, LRRFIP1 / RFU, NDUFAF7 / Fold change vs veh, NDUFAF7 / RFU, SLC12A2 / Fold change vs veh, SLC12A2 / RFU, IBTK / Fold change vs veh, IBTK / RFU, ESF1 / Fold change vs veh, ESF1 / Fold change vs veh, TMEM50B / RFU, TAOK1 / Fold change vs veh, TAOK1 / RFU, ACBD3 / Fold change vs veh, ACBD3 / RFU, TMA16 / Fold change vs veh, TMA16 / RFU, RWDD3 / Fold change vs veh, RWDD3 / RFU, BCAT1 / Fold change vs veh, BCAT1 / RFU, EDEM3 / Fold change vs veh, EDEM3 / RFU, TMEM33 / Fold change vs veh, TMEM33 / RFU, WDR75 / Fold change vs veh, WDR75 / RFU, AHCTF1 / Fold change vs veh, AHCTF1 / RFU, TFRC / Fold change vs veh, TFRC / RFU, ZDHHC17 / Fold change vs veh, ZDHHC17 / RFU, NOM1 / Fold change vs veh, NOM1 / RFU, ARL8B / Fold change vs veh, ARL8B / RFU, ZBTB11 / Fold change vs veh, ZBTB11 / RFU, TAMM41 / Fold change vs veh, TAMM41 / RFU, KIAA1704 /// LOC100996395 / Fold change vs veh, KIAA1704 /// LOC100996395 / RFU, ING1 / Fold change vs veh, ING1 / RFU, TRMT61B / Fold change vs veh, TRMT61B / RFU, FUBP3 / Fold change vs veh, FUBP3 / RFU, TP53 / Fold change vs veh, TP53 / RFU, TNKS2 / Fold change vs veh, TNKS2 / RFU, ZFP14 / Fold change vs veh, ZFP14 / RFU, ACTR2 / Fold change vs veh, ACTR2 / RFU, PPP3R1 / Fold change vs veh, PPP3R1 / RFU, PIK3R1 / Fold change vs veh, PIK3R1 / RFU, HNRNPA1 / Fold change vs veh, HNRNPA1 / RFU, RNF170 / Fold change vs veh, RNF170 / RFU, ZNF28 / Fold change vs veh, ZNF28 / RFU, RNGTT / Fold change vs veh, RNGTT / RFU, OGT / Fold change vs veh, OGT / RFU, BRD1 / Fold change vs veh, BRD1 / RFU, MARS / Fold change vs veh, MARS / RFU, ZNF655 / Fold change vs veh, ZNF655 / RFU, FAHD1 / Fold change vs veh, FAHD1 / RFU, BDP1 / Fold change vs veh, BDP1 / RFU, LRRCC1 / Fold change vs veh, LRRCC1 / RFU, ARID1A / Fold change vs veh, ARID1A / RFU, ZNF146 / Fold change vs veh, ZNF146 / RFU, ZNF330 / Fold change vs veh, ZNF330 / RFU, GPN3 / Fold change vs veh, GPN3 / RFU, C9orf123 / Fold change vs veh, C9orf123 / RFU, N4BP2L2 / Fold change vs veh, N4BP2L2 / RFU, ARFIP1 / Fold change vs veh, ARFIP1 / RFU, FAM179B / Fold change vs veh, FAM179B / RFU, BCL10 / Fold change vs veh, BCL10 / RFU, UHRF1BP1L / Fold change vs veh, UHRF1BP1L / RFU, BET1 / Fold change vs veh, BET1 / RFU, CNOT2 / Fold change vs veh, CNOT2 / RFU, ZNF268 / Fold change vs veh, ZNF268 / Fold change vs veh, ZNF507 / RFU, DGCR2 / Fold change vs veh, DGCR2 / RFU, WDSUB1 / Fold change vs veh, WDSUB1 / Fold change vs veh, HSP90B1 /// MIR3652 / RFU, ADSS / Fold change vs veh, ADSS / RFU, GK / Fold change vs veh, GK / RFU, ZNF148 / Fold change vs veh, ZNF148 / RFU, TAF9 / Fold change vs veh, TAF9 / RFU, SLC1A5 / Fold change vs veh, SLC1A5 / RFU, SLMO2 / Fold change vs veh, SLMO2 / RFU, ABCC4 / Fold change vs veh, ABCC4 / RFU, LOC101060439 /// RAP1B / Fold change vs veh, LOC101060439 /// RAP1B / RFU, RFX7 / Fold change vs veh, RFX7 / RFU, GTPBP10 / Fold change vs veh, GTPBP10 / RFU, CNEP1R1 / Fold change vs veh, CNEP1R1 / RFU, BIVM-ERCC5 /// ERCC5 / Fold change vs veh, BIVM-ERCC5 /// ERCC5 / RFU, ILF3 / Fold change vs veh, ILF3 / RFU 11762660_at / Fold change /veh 11762660_at / RFU VCAN (11757783_s_at) / Fold change /veh VCAN (11757783_s_at) / RFU DDX43 (11728927_at) / Fold change /veh DDX43 (11728927_at) / RFU KRT8 (11758188_x_at) / Fold change /veh KRT8 (11758188_x_at) / RFU NKD1 (11759106_at) / Fold change /veh NKD1 (11759106_at) / RFU SRD5A1 (11742802_a_at) / Fold change /veh SRD5A1 (11742802_a_at) / RFU TPSAB1 /// TPSB2 (11721975_s_at) / Fold change /veh TPSAB1 /// TPSB2 (11721975_s_at) / RFU GSTM3 (11746129_a_at) / Fold change /veh GSTM3 (11746129_a_at) / RFU IL23R (11737362_x_at) / Fold change /veh IL23R (11737362_x_at) / RFU TMEM51 (11727254_a_at) / Fold change /veh TMEM51 (11727254_a_at) / RFU PIWIL2 (11732686_x_at) / Fold change /veh PIWIL2 (11732686_x_at) / RFU ORM1 (11744905_x_at) / Fold change /veh ORM1 (11744905_x_at) / RFU CCDC152 (11743942_at) / Fold change /veh CCDC152 (11743942_at) / RFU ECM1 (11717891_a_at) / Fold change /veh ECM1 (11717891_a_at) / RFU IL23R (11748794_a_at) / Fold change /veh IL23R (11748794_a_at) / RFU TNFAIP8L3 (11732012_x_at) / Fold change /veh TNFAIP8L3 (11732012_x_at) / RFU MBOAT4 (11741988_at) / Fold change /veh MBOAT4 (11741988_at) / RFU 11764193_at / Fold change /veh 11764193_at / RFU TMEM53 (11763286_at) / Fold change /veh TMEM53 (11763286_at) / RFU MAGEB2 (11727129_at) / Fold change /veh MAGEB2 (11727129_at) / RFU TMEM200A (11744735_a_at) / Fold change /veh TMEM200A (11744735_a_at) / RFU CCDC152 (11751479_a_at) / Fold change /veh CCDC152 (11751479_a_at) / RFU FAM211A (11726209_a_at) / Fold change /veh FAM211A (11726209_a_at) / RFU RGS16 (11746705_a_at) / Fold change /veh RGS16 (11746705_a_at) / RFU VCAN (11755009_s_at) / Fold change /veh VCAN (11755009_s_at) / RFU RHOB (11743442_s_at) / Fold change /veh RHOB (11743442_s_at) / RFU RGS16 (11720943_a_at) / Fold change /veh RGS16 (11720943_a_at) / RFU RGS16 (11720944_at) / Fold change /veh RGS16 (11720944_at) / RFU, VPS4B / Fold change vs veh, VPS4B / RFU, CREB1 / Fold change vs veh, CREB1 / RFU, DNAJC13 / Fold change vs veh, DNAJC13 / RFU, GNAQ / Fold change vs veh, GNAQ / RFU, CDK5R1 / Fold change vs veh, CDK5R1 / RFU, ZRANB3 / Fold change vs veh, ZRANB3 / RFU, CUL4A / Fold change vs veh, CUL4A / RFU, CCNY / Fold change vs veh, CCNY / RFU, UFL1 / Fold change vs veh, UFL1 / RFU, COG3 / Fold change vs veh, COG3 / RFU, DIAPH2 / Fold change vs veh, DIAPH2 / RFU, SKA2 / Fold change vs veh, SKA2 / RFU, AFF3 / Fold change vs veh, AFF3 / RFU, LMF1 / Fold change vs veh, LMF1 / RFU, IPO11 / Fold change vs veh, IPO11 / RFU, DFFB / Fold change vs veh, DFFB / RFU, FOXP1 / Fold change vs veh, FOXP1 / RFU, CARD8 / Fold change vs veh, CARD8 / RFU, STRN3 / Fold change vs veh, STRN3 / RFU, ADK / Fold change vs veh, ADK / RFU, RASSF2 / Fold change vs veh, RASSF2 / RFU, WIPF1 / Fold change vs veh, WIPF1 / RFU, LARP1B / Fold change vs veh, LARP1B / RFU, RASA1 / Fold change vs veh, RASA1 / RFU, RB1 / Fold change vs veh, RB1 / RFU, PPFIA1 / Fold change vs veh, PPFIA1 / RFU, MAT2A / Fold change vs veh, MAT2A / RFU, CCT5 / Fold change vs veh, CCT5 / RFU, WDR92 / Fold change vs veh, WDR92 / RFU, CUX1 / Fold change vs veh, CUX1 / RFU, TTC7A / Fold change vs veh, TTC7A / RFU, TMEM135 / Fold change vs veh, TMEM135 / RFU, DEPTOR / Fold change vs veh, DEPTOR / RFU, CPM / Fold change vs veh, CPM / RFU, DNAJB6 / Fold change vs veh, DNAJB6 / RFU, CACNA2D3 / Fold change vs veh, CACNA2D3 / RFU, DTX4 / Fold change vs veh, DTX4 / RFU, TFCP2 / Fold change vs veh, TFCP2 / RFU, GMCL1 /// GMCL1P1 / Fold change vs veh, GMCL1 /// GMCL1P1 / RFU, AEBP2 / Fold change vs veh, AEBP2 / RFU, SNHG1 /// SNORD22 /// SNORD25 /// SNORD26 /// SNORD27 /// SNORD28 /// SNORD29 /// SNORD31 / Fold change vs veh, SNHG1 /// SNORD22 /// SNORD25 /// SNORD26 /// SNORD27 /// SNORD28 /// SNORD29 /// SNORD31 / Fold change (Aza/veh), C12orf56 (ProbeSet 11735607_a_at) / Fold change (ACY-1035/veh), C12orf56 (ProbeSet 11735607_a_at) / Fold change (Aza/veh), FGFR1OP (ProbeSet 11751329_s_at) / Fold change (ACY-1035/veh), FGFR1OP (ProbeSet 11751329_s_at) / Fold change (Aza/veh), VPS36 (ProbeSet 11739960_a_at) / Fold change (ACY-1035/veh), VPS36 (ProbeSet 11739960_a_at) / RFU SYPL1 (11715823_x_at) / Fold change /veh SYPL1 (11715823_x_at) / RFU IGFBP7 (11715501_s_at) / Fold change /veh IGFBP7 (11715501_s_at) / RFU REEP3 (11722064_at) / Fold change /veh REEP3 (11722064_at) / RFU IGLL1 (11728026_x_at) / Fold change /veh IGLL1 (11728026_x_at): dose or concentration left out as unconfirmed. The following applies: MV-4-11 cells, 48 hours.

For `Nc1ccc(-c2cccs2)cc1NC(=O)c1ccc2c(c1)cc(C1CC1)n2CCN1CCOCC1` [ACY-1035], the “Fold change /veh TNFAIP8L3 (11732012_x_at)” value came out at 1.18.
